Measurements as given in patent US20250353841A1 (BIOGEN MA INC., priority 2022, published 2025).

System: mutant Huntington (HTT) protein
Test: HTT Mutant HTRF iPSC assay (mHTT protein lowering)
Format: cell-based
Conditions: human iPSC derived from a HTT patient with a poly-Q49 mutation

SMILES	IC50 [nM]
Cc1cn2nc(-c3cc(F)c4nc(CC5CCN(C)CC5)nn4c3)cc(C)c2n1 [Compound 448, 6-(2,8-dimethylimidazo[1,2-b]pyridazin-6-yl)-8-fluoro-2-((1-methylpiperidin-4-yl)methyl)-[1,2,4]triazolo[1,5-a]pyridine]	100 to 1000
Cc1cn2nc(-c3cc(F)c4nc(C[C@H]5C[C@H](N)C5)nn4c3)cc(C)c2n1 [Compound 449, (1r,3r)-3-((6-(2,8-dimethylimidazo[1,2-b]pyridazin-6-yl)-8-fluoro-[1,2,4]triazolo[1,5-a]pyridin-2-yl)methyl)cyclobutan-1-amine]	100 to 1000
Cc1cn2nc(-c3cc(F)c4nc(C[C@H]5C[C@@H](N)C5)nn4c3)cc(C)c2n1 [Compound 450, (1s,3s)-3-((6-(2,8-dimethylimidazo[1,2-b]pyridazin-6-yl)-8-fluoro-[1,2,4]triazolo[1,5-a]pyridin-2-yl)methyl)cyclobutan-1-amine]	100 to 1000
Cc1cn2nc(-c3cc(F)c4nc([C@H]5CC[C@]6(CCNC6)CC5)nn4c3)cc(C)c2n1 [Compound 451, (5s,8s)-8-(6-(2,8-dimethylimidazo[1,2-b]pyridazin-6-yl)-8-fluoro-[1,2,4]triazolo[1,5-a]pyridin-2-yl)-2-azaspiro[4.5]decane]	100 to 1000
Cc1cn2nc(-c3cc(F)c4nc([C@H]5CC[C@@]6(CCNC6)CC5)nn4c3)cc(C)c2n1 [Compound 452, (5r,8r)-8-(6-(2,8-dimethylimidazo[1,2-b]pyridazin-6-yl)-8-fluoro-[1,2,4]triazolo[1,5-a]pyridin-2-yl)-2-azaspiro[4.5]decane]	100 to 1000
Cc1cn2nc(-c3cc(F)c4nc([C@H]5[C@@H]6CN(C)C[C@@H]65)nn4c3)cc(C)c2n1 [Compound 453, 6-(2,8-dimethylimidazo[1,2-b]pyridazin-6-yl)-8-fluoro-2-[(1S,5R)-3-methyl-3-azabicyclo[3.1.0]hexan-6-yl]-[1,2,4]triazolo[1,5-a]pyridine]	100 to 1000
Cc1cn2nc(-c3cc(F)c4nc(C5CCNC6(CC6)C5)nn4c3)cc(C)c2n1 (stereo not drawn) [Compound 454, 6-(2,8-dimethylimidazo[1,2-b]pyridazin-6-yl)-8-fluoro-2-(4-azaspiro[2.5]octan-7-yl)-[1,2,4]triazolo[1,5-a]pyridine]	100 to 1000
Cc1cn2nc(-c3cc(F)c4nc([C@H]5[C@@H]6CNC[C@@H]65)oc4c3)cc(C)c2n1 [Compound 455, 2-((1R,5S,6r)-3-azabicyclo[3.1.0]hexan-6-yl)-6-(2,8-dimethylimidazo[1,2-b]pyridazin-6-yl)-4-fluorobenzo[d]oxazole]	100 to 1000
Cc1cn2nc(-c3cc(F)c4nc(C5CCN(C)CC5)oc4c3)cc(C)c2n1 [Compound 456, 6-(2,8-dimethylimidazo[1,2-b]pyridazin-6-yl)-4-fluoro-2-(1-methylpiperidin-4-yl)benzo[d]oxazole]	100 to 1000
Cc1cn2nc(-c3cc(F)c4nc(C5CC6(CCN(C)CC6)C5)oc4c3)cc(C)c2n1 [Compound 458, 6-(2,8-dimethylimidazo[1,2-b]pyridazin-6-yl)-4-fluoro-2-(7-methyl-7-azaspiro[3.5]nonan-2-yl)benzo[d]oxazole]	100 to 1000
Cc1cn2nc(-c3cc(F)c4nc(CC5CCN(C)CC5)oc4c3)cc(C)c2n1 [Compound 459, 6-(2,8-dimethylimidazo[1,2-b]pyridazin-6-yl)-4-fluoro-2-((1-methylpiperidin-4-yl)methyl)benzo[d] oxazole]	< 100
Cc1cn2nc(-c3cc(F)c4nc(N5CC6CN(C)CC6C5)oc4c3)cc(C)c2n1 (stereo not drawn) [Compound 466, 6-(2,8-dimethylimidazo[1,2-b]pyridazin-6-yl)-4-fluoro-2-(5-methylhexahydropyrrolo [3,4-c]pyrrol-2(1H)-yl)benzo[d]oxazole]	100 to 1000
Cc1cn2nc(-c3cc(F)c4nc(N(C)C5CC(C)(C)NC(C)(C)C5)oc4c3)cc(C)c2n1 [Compound 467, 6-(2,8-dimethylimidazo[1,2-b]pyridazin-6-yl)-4-fluoro-N-methyl-N-(2,2,6,6-tetramethylpiperidin-4-yl)benzo[d]oxazol-2-amine]	100 to 1000
Cc1cn2nc(-c3cc(F)c4nc(N5CCC6(CCN(C)CC6)C5)oc4c3)cc(C)c2n1 [Compound 468, 6-(2,8-dimethylimidazo[1,2-b]pyridazin-6-yl)-4-fluoro-2-(8-methyl-2,8-diazaspiro[4.5]decan-2-yl)benzo[d]oxazole]	< 100
Cc1cn2nc(-c3cc(F)c4nc(N(C)C5CCN(C(C)C)CC5)oc4c3)cc(C)c2n1 [Compound 469, 6-(2,8-dimethylimidazo[1,2-b]pyridazin-6-yl)-4-fluoro-N-(1-isopropylpiperidin-4-yl)-N-methylbenzo[d]oxazol-2-amine]	100 to 1000
Cc1cn2nc(-c3cc(F)c4nc(N5CCC6(CCN(C)C6)CC5)oc4c3)cc(C)c2n1 [Compound 470, 6-(2,8-dimethylimidazo[1,2-b]pyridazin-6-yl)-4-fluoro-2-(2-methyl-2,8-diazaspiro[4.5]decan-8-yl)benzo[d]oxazole]	< 100
CCN1CCC(Nc2nc3c(F)cc(-c4cc(C)c5nc(C)cn5n4)cc3o2)CC1C (stereo not drawn) [Compound 471, 6-(2,8-dimethylimidazo[1,2-b]pyridazin-6-yl)-N-(1-ethyl-2-methylpiperidin-4-yl)-4-fluorobenzo[d]oxazol-2-amine]	< 100

SMILES	IC50 [nM]
Cc1cn2nc(-c3cc(F)c4nc(N5CCC6(CN(C)C6)C5)oc4c3)cc(C)c2n1 [Compound 472, 6-(2,8-dimethylimidazo[1,2-b]pyridazin-6-yl)-4-fluoro-2-(2-methyl-2,6-diazaspiro[3.4]octan-6-yl)benzo[d]oxazole]	100 to 1000
Cc1cn2nc(-c3cc(F)c4nc(N(C)C5CCN(C)C(C)C5)oc4c3)cc(C)c2n1 (stereo not drawn) [Compound 473, 6-(2,8-dimethylimidazo[1,2-b]pyridazin-6-yl)-N-(1,2-dimethylpiperidin-4-yl)-4-fluoro-N-methylbenzo[d]oxazol-2-amine]	100 to 1000
Cc1cn2nc(-c3cc(F)c4nc(N5CCC(C)(CN(C)C)C5)oc4c3)cc(C)c2n1 (stereo not drawn) [Compound 474, 1-(1-(6-(2,8-dimethylimidazo[1,2-b]pyridazin-6-yl)-4-fluorobenzo[d]oxazol-2-yl)-3-methylpyrrolidin-3-yl)-N,N-dimethylmethanamine]	100 to 1000
Cc1cn2nc(-c3cc(F)c4nc(N5CCC(N(C)C)CC5)oc4c3)cc(C)c2n1 [Compound 475, 1-(6-(2,8-dimethylimidazo[1,2-b]pyridazin-6-yl)-4-fluorobenzo[d]oxazol-2-yl)-N,N-dimethylpiperidin-4-amine]	< 100
Cc1cn2nc(-c3cc(F)c4nc(N5CCC(N6CCCC6)C5)oc4c3)cc(C)c2n1 (stereo not drawn) [Compound 476, 2-([1,3′-bipyrrolidin]-1′-yl)-6-(2,8-dimethylimidazo[1,2-b]pyridazin-6-yl)-4-fluorobenzo[d]oxazole]	100 to 1000
Cc1cn2nc(-c3cc(F)c4nc(N5CCC(N6CCCC6)CC5)oc4c3)cc(C)c2n1 [Compound 477, 6-(2,8-dimethylimidazo[1,2-b]pyridazin-6-yl)-4-fluoro-2-(4-(pyrrolidin-1-yl)piperidin-1-yl)benzo[d]oxazole]	100 to 1000
Cc1cn2nc(-c3cc(F)c4nc(NC5CCN(C6CCC6)CC5)oc4c3)cc(C)c2n1 [Compound 478, N-(1-cyclobutylpiperidin-4-yl)-6-(2,8-dimethylimidazo[1,2-b]pyridazin-6-yl)-4-fluorobenzo[d]oxazol-2-amine]	< 100
CCN1CCC(Nc2nc3c(F)cc(-c4cc(C)c5nc(C)cn5n4)cc3o2)CC1 [Compound 479, 6-(2,8-dimethylimidazo[1,2-b]pyridazin-6-yl)-N-(1-ethylpiperidin-4-yl)-4-fluorobenzo[d]oxazol-2-amine]	< 100
COCCN1CCC(Nc2nc3c(F)cc(-c4cc(C)c5nc(C)cn5n4)cc3o2)CC1 [Compound 480, 6-(2,8-dimethylimidazo[1,2-b]pyridazin-6-yl)-4-fluoro-N-(1-(2-methoxyethyl)piperidin-4-yl)benzo[d]oxazol-2-amine]	< 100
Cc1cn2nc(-c3cc(F)c4nc(NC5CCN(C6CCOC6)CC5)oc4c3)cc(C)c2n1 (stereo not drawn) [Compound 481, 6-(2,8-dimethylimidazo[1,2-b]pyridazin-6-yl)-4-fluoro-N-(1-(tetrahydrofuran-3-yl)piperidin-4-yl)benzo[d]oxazol-2-amine]	< 100
Cc1cn2nc(-c3cc(F)c4nc(NC5CCN6CCCC6C5)oc4c3)cc(C)c2n1 (stereo not drawn) [Compound 482, 6-(2,8-dimethylimidazo[1,2-b]pyridazin-6-yl)-4-fluoro-N-(octahydroindolizin-7-yl)benzo[d]oxazol-2-amine]	< 100
Cc1cn2nc(-c3cc(F)c4nc(N5CCC(CN6CCCC6)C5)oc4c3)cc(C)c2n1 (stereo not drawn) [Compound 483, 6-(2,8-dimethylimidazo[1,2-b]pyridazin-6-yl)-4-fluoro-2-(3-(pyrrolidin-1-ylmethyl)pyrrolidin-1-yl)benzo[d]oxazole]	100 to 1000
Cc1cn2nc(-c3cc(F)c4nc(NC5CC(C)NC(C)C5)oc4c3)cc(C)c2n1 (stereo not drawn) [Compound 484, 6-(2,8-dimethylimidazo[1,2-b]pyridazin-6-yl)-N-(2,6-dimethylpiperidin-4-yl)-4-fluorobenzo[d]oxazol-2-amine]	< 100
Cc1cn2nc(-c3cc(F)c4nc(NC5CCNC(C)(C)C5)oc4c3)cc(C)c2n1 (stereo not drawn) [Compound 485, 6-(2,8-dimethylimidazo[1,2-b]pyridazin-6-yl)-N-(2,2-dimethylpiperidin-4-yl)-4-fluorobenzo[d]oxazol-2-amine]	< 100
Cc1cn2nc(-c3cc(F)c4nc(N5CCC(CN(C)CC6CC6)C5)oc4c3)cc(C)c2n1 (stereo not drawn) [Compound 489, 1-cyclopropyl-N-((1-(6-(2,8-dimethylimidazo[1,2-b]pyridazin-6-yl)-4-fluorobenzo[d]oxazol-2-yl)pyrrolidin-3-yl)methyl)-N-methylmethanamine]	< 100
Cc1cn2nc(-c3cc(F)c4nc(N5CCCC(N6CCCCC6)C5)oc4c3)cc(C)c2n1 (stereo not drawn) [Compound 490, 2-([1,3′-bipiperidin]-1′-yl)-6-(2,8-dimethylimidazo[1,2-b]pyridazin-6-yl)-4-fluorobenzo[d]oxazole]	100 to 1000
